Test systems include MDA-MB-231 breast; MDA-MB-435; HL-60(TB) leukemia; SK-MEL-5 melanoma; A549 NSCLC; NCI/ADR-RES ovarian; SF-268 CNS; HOP-92 NSCLC; OVCAR-3 ovarian; EKVX NSCLC.
Common to all, as to assay: DTP human tumour cell line panel, 48 h

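Step 1: Grow cells in 96-well plates. Step 2: Expose to compound for 48 hours at 5 concentrations. Step 3: Interpolate endpoints linearly; if unreached, use highest concentration. GI50: concentration for 50% inhibition of growth. At the TGI there is no net growth.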

This is an account of results in PubChem BioAssay (NCI).

Usually GI50 stands for the concentration that inhibits growth by half. As usually defined, the TGI is the concentration at which net growth stops. A low value points to greater sensitivity of the cells.

Turning to `Nc1nc2c(s1)CCc1c-2c(Br)n(Cc2ccccc2)c1Br`, the GI50 is 14.1 µM with MDA-MB-231 breast; 8.57 µM with MDA-MB-435; 5.64 µM with HL-60(TB) leukemia; 14.3 µM in the test on SK-MEL-5 melanoma; 17.2 µM in the test on A549 NSCLC; 23.7 µM in the test on NCI/ADR-RES ovarian. Besides, the GI50 with SF-268 CNS is 14.6 µM; with HOP-92 NSCLC, 4.43 µM; in the test on OVCAR-3 ovarian, 3.9 µM. The concentration for total growth inhibition (TGI) is 48.7 µM with MDA-MB-231 breast; 30.7 µM in the test with MDA-MB-435; 37.1 µM in the test on HL-60(TB) leukemia; 30.2 µM in the test on SK-MEL-5 melanoma; more than 100 µM in the test on A549 NSCLC; 87.7 µM in the test with NCI/ADR-RES ovarian. For the same compound, the TGI with SF-268 CNS came to 39 µM; in the test with HOP-92 NSCLC it was 23.9 µM; with OVCAR-3 ovarian, 13.8 µM.
As for `COc1cc2nc(SCC(=O)Nc3cc(OC)c(OC)c(OC)c3)n(Cc3ccccc3)c(=O)c2cc1OC`, the GI50 is 3.73 µM in the test with MDA-MB-231 breast; 4.91 µM with MDA-MB-435; more than 100 µM with HL-60(TB) leukemia; 5.13 µM in the test on A549 NSCLC; 3.3 µM with NCI/ADR-RES ovarian; 3.57 µM with SF-268 CNS. The GI50 in the test with OVCAR-3 ovarian was 7.68 µM; with EKVX NSCLC it was 5.12 µM. For the same compound, the TGI was 37.8 µM in the test with MDA-MB-231 breast; more than 100 µM in the test with MDA-MB-435; more than 100 µM with HL-60(TB) leukemia; more than 100 µM in the test with A549 NSCLC; 11.6 µM in the test on NCI/ADR-RES ovarian; 23.2 µM in the test with SF-268 CNS. Also, the results for the TGI in the test on OVCAR-3 ovarian and in the test on EKVX NSCLC were 50.3 µM and 31.1 µM, respectively.
In the case of `Cc1ccccc1-n1ncc(C(=O)c2ccccc2)c1N`, the GI50 with MDA-MB-231 breast, with MDA-MB-435, with HL-60(TB) leukemia, with SK-MEL-5 melanoma, in the test with A549 NSCLC and in the test on NCI/ADR-RES ovarian was more than 25 µM each time. Besides, the GI50 with SF-268 CNS is more than 25 µM; in the test with HOP-92 NSCLC, 4.2 µM; with OVCAR-3 ovarian, more than 25 µM. The total growth inhibition concentration (TGI) in the test on MDA-MB-231 breast, in the test with MDA-MB-435, in the test with HL-60(TB) leukemia, in the test on SK-MEL-5 melanoma, with A549 NSCLC and in the test on NCI/ADR-RES ovarian was more than 25 µM throughout. Further, the TGI in the test with SF-268 CNS, in the test with HOP-92 NSCLC and with OVCAR-3 ovarian was more than 25 µM in each case.
As for `CCCCCCCCN(CCCCCCCC)CCCCCCNc1cc(OC)cc2cccnc12`, the GI50 is 4.75 µM with MDA-MB-231 breast; 3.59 µM in the test on MDA-MB-435; 16.4 µM in the test with HL-60(TB) leukemia; 8.53 µM in the test on SK-MEL-5 melanoma; 16.3 µM in the test on A549 NSCLC; 10.4 µM with NCI/ADR-RES ovarian. The values for the GI50 in the test with SF-268 CNS, in the test on OVCAR-3 ovarian and in the test on EKVX NSCLC were 12.7 µM, 2.01 µM and 6.82 µM, respectively. Besides, the TGI in the test with MDA-MB-231 breast is 15.9 µM; in the test on MDA-MB-435, 12.8 µM; in the test with HL-60(TB) leukemia, 37.3 µM; in the test with SK-MEL-5 melanoma it was 21.1 µM; with A549 NSCLC, 34.8 µM; in the test on NCI/ADR-RES ovarian it was 23.4 µM. In addition, the TGI in the test on SF-268 CNS was found to be 30 µM; in the test on OVCAR-3 ovarian, 4.09 µM; with EKVX NSCLC it was 24 µM.
In the case of `Cc1ccc(-c2cc3c(SCC(=O)Nc4cc(C(F)(F)F)ccc4Cl)nccn3n2)cc1`, the GI50 is 94.5 µM with MDA-MB-231 breast; more than 100 µM in the test with MDA-MB-435; more than 100 µM in the test with HL-60(TB) leukemia; more than 100 µM with SK-MEL-5 melanoma; more than 100 µM with NCI/ADR-RES ovarian; 79.4 µM in the test with SF-268 CNS. For the same compound, the GI50 in the test with HOP-92 NSCLC is 14.1 µM; with OVCAR-3 ovarian it was more than 100 µM. For the same compound, the TGI with MDA-MB-231 breast, in the test on MDA-MB-435, in the test on HL-60(TB) leukemia, with SK-MEL-5 melanoma, in the test on NCI/ADR-RES ovarian and in the test with SF-268 CNS was more than 100 µM throughout. For the same compound, the TGI with HOP-92 NSCLC and in the test with OVCAR-3 ovarian was more than 100 µM throughout.
For `COc1ccc(C(=O)c2cc(OC)c(OC)c(OC)c2)cc1/C=C/C(=O)c1ccc(OC)c(OC)c1`, the GI50 is 0.659 µM in the test on MDA-MB-231 breast; 2.29 µM with MDA-MB-435; 0.466 µM in the test with NCI/ADR-RES ovarian; 3 µM in the test on SF-268 CNS; 1.69 µM in the test on HOP-92 NSCLC. Besides, the TGI in the test on MDA-MB-231 breast was more than 100 µM; in the test with MDA-MB-435 it was more than 100 µM; in the test with NCI/ADR-RES ovarian it was more than 100 µM; in the test with SF-268 CNS, more than 100 µM; with HOP-92 NSCLC, 58 µM.
On to `O=CNc1ncn[nH]1`, for which the concentration for total growth inhibition (TGI) in the test on MDA-MB-231 breast, in the test on MDA-MB-435, with HL-60(TB) leukemia, in the test on SK-MEL-5 melanoma, in the test with A549 NSCLC and in the test with NCI/ADR-RES ovarian was more than 100 µM throughout. Also, the TGI in the test with SF-268 CNS, with OVCAR-3 ovarian and with EKVX NSCLC was more than 100 µM in each case.
